PMC10682503, “Structural and functional basis of inositol hexaphosphate stimulation of NHEJ through stabilization of Ku-XLF interaction” (Nucleic Acids Research, 2023)
Where two headings read alike, the source gives them in different places.

Key:
[1] = target: Ku-DNA interaction (Homo sapiens, UniProt P12956+P13010); test: Single-molecule colocalization (TIRF) of Ku-AF647 on 18 bp DNA; format: binding; conditions: IP6 10 μM
Method: Single molecule labelling, and flow channel preparation for single-molecule colocalization experiment are described in Supplemental Information. A single-molecule experiment was performed on a Total Internal Reflection Fluorescence (TIRF) microscope equipped with an inverted oil immersion objective (×100, 1.49 NA lens) coupled to 532 nm (Ultra-Laser, MGL-FN-532) and 639 nm (Ultra-Laser, MGL-FN-639) excitation lasers to excite the sample at TIRF illumination. A dichroic beam splitter (Semrock, Di03-635-t1) was used to split green and red signals, which were passed through narrow bandpass filters (Semrock, FF01-582/64 and FF01-680/42). The signals were collected by an electron-multiplying charge-coupled device (EM-CCD) (Andor, iXon897). Fluorescence beads (Invitrogen, Life Technologies Corporation, Eugene, OR) were used to map corresponding signals in green and red channels.
The BSA in the flow channel was washed with T50 buffer. […] Movies of 1 000 frames (33 Hz) were recorded with the red laser and both lasers turned on for the first 900 frames and last 100 frames, respectively. Four independent experiments were performed where at least 20 movies were recorded for each experimental condition. […]
Fluorescent labelling of Ku. […] The labelled protein was determined to have 50 % labelling efficiency, spectrophotometrically. […]

[2] = target: T1, Ku-XLF interaction (Homo sapiens, UniProt P12956+P13010); test: switchSENSE analysis of Ku-DNA interaction with XLF; format: binding; conditions: IP6 20 μM; for Kd: biphasic fit
T1 construct: The full-length human Ku heterodimer subunits (Ku70 1–609, Ku80 1–732); 10x His-tag with TEV site (N); made in house; host or cells: Sf21 insect cells (Ku)
T1 sequence (P12956 whole entry): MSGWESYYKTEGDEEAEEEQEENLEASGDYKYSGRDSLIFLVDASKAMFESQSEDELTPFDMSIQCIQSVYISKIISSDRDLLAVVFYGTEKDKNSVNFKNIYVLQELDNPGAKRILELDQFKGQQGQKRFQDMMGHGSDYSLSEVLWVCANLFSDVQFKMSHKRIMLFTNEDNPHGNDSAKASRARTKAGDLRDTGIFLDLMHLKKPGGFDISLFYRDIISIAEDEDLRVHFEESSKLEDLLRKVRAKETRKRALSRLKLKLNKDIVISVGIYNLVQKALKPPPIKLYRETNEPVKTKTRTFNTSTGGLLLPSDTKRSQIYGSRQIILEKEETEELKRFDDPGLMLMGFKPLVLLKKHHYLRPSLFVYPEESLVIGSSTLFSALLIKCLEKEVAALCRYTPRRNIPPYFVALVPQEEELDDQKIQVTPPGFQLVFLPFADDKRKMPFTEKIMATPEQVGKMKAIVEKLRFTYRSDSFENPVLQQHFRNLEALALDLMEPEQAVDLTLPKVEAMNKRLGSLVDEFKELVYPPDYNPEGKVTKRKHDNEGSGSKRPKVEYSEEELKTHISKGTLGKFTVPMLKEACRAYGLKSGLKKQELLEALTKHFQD
T1 sequence (P13010 whole entry): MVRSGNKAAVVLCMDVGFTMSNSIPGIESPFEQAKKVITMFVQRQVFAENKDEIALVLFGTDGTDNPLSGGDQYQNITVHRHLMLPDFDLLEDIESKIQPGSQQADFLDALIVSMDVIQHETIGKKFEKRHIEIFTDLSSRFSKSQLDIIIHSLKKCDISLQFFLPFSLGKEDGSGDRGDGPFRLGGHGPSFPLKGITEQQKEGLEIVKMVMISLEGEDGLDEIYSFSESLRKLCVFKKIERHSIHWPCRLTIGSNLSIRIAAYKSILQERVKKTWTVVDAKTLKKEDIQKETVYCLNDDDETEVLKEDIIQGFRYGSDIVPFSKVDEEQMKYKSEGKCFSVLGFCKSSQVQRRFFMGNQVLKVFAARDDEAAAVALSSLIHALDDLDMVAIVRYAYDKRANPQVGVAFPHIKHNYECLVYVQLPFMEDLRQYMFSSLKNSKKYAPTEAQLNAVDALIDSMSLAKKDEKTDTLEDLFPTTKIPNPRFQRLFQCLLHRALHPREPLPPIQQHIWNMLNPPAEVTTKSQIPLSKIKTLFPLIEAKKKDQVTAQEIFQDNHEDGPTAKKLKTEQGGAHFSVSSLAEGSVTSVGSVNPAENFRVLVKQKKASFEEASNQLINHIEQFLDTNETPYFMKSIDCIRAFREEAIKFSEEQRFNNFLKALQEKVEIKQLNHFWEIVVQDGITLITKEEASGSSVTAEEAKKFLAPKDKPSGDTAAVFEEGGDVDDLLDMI
T1 sequence (Q9H9Q4 whole entry partner): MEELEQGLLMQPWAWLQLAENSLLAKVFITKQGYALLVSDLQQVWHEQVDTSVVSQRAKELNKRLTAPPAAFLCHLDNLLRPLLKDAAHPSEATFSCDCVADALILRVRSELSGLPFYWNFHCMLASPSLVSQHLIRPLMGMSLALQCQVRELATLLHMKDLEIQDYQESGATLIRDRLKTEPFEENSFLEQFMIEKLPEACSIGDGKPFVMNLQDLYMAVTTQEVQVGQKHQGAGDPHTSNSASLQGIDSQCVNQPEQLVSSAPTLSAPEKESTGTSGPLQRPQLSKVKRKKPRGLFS
Method: switchSENSE: A DRX 2400 instrument and a multi-purpose 48bp chip were used for switchSENSE measurements (both Dynamic Biosensors GmbH; Planegg, Germany). The sample and running buffer was in 10 mM Tris HCl pH 7.4, 140 mM NaCl, 50 µM EDTA, 0.05 % Tween-20, 50µM EDTA. Kinetics experiments of Ku interaction with DNA in presence or absence of IP6 were performed on a DRX2 instrument. Complementary DNA to the strand immobilized on the chip was first hybridized on the measurement electrodes. The association and dissociation between Ku and DNA, with or without IP6 (3 µM) at Ku concentration (0-15-30-60-120-240 nM were measured in a flow rate of 200 µL/min. Kinetics experiments of Ku interaction with DNA and XLF with or without DNA were performed on a Helix instrument. The sample and running buffer was in 10 mM Tris HCl pH 7.4, 140 mM NaCl, 50 µM EDTA, 0.05 % Tween-20 with or without IP6 (20 µM). The flow rate of all conditions are at 500 µL/min.
A complementary DNA is hybridized onto an anchor DNA on the measurement chip in order to obtain a 96 base paired DNA with nick. KuFL is then captured under saturation condition (SI figure 13a and 13c). Association and dissociation between XLF and Ku-DNA is then monitored using 1, 2 or 8 µM of XLF, with or without IP6 in working buffer (SI figure 13c and d) . The fit is realised using biphasic model from BDS software.

Sequence of Ku-DNA interaction (P12956 whole entry): as the sequence (P12956 whole entry) above
Sequence of Ku-DNA interaction (P13010 whole entry): as the sequence (P13010 whole entry) above

SMILES: O=P(O)(O)O[C@H]1[C@H](OP(=O)(O)O)[C@@H](OP(=O)(O)O)[C@H](OP(=O)(O)O)[C@@H](OP(=O)(O)O)[C@H]1OP(=O)(O)O [IP6, inositol hexaphosphate]
- kinetic dissociation constant (kOFF) of Ku from dsDNA [1]: decreases
- residence times of Ku on DNA [1]: slightly increases
- KD1 stronger with IP6 than in absence of IP6 [2]: 3 fold
- KD2 stronger with IP6 than in absence of IP6 [2]: 14 fold
- Kd ([2]; without IP6 1.9 ± 0.8, read-out: KD2, apparent affinity between Ku and XLF): 130 ± 9 nM
- Kd ([2]; without IP6 3.6 ± 0.6, read-out: KD1, apparent affinity between Ku and XLF): 1200 ± 150 nM
